Converted amounts (≈) assume the structure as drawn.
Legend:
[1] = Aqueous solubility in phosphate buffer at pH 6.5 by lyophilisation solubility assay; assay type: physicochemical
[2] = Metabolic stability in mouse liver microsomes assessed as intrinsic clearance per mg protein; assay type: ADME, Microsome
[3] = Metabolic stability in human liver microsomes assessed as intrinsic clearance per mg protein; assay type: ADME, Microsome

Row | Compound | solubility [1] | microsomal CLint [2] | microsomal CLint [3]
1 | N#Cc1ccc(C(=O)NCC(=O)NC(c2ccccc2)c2ccc(Cl)cc2)cc1 (centres undefined) | 7 µg/mL (≈ 17.3 µM) | 8.6 µL/min/mg | –
2 | O=C(CNC(=O)c1ccc(F)cc1)NC(c1cccc(F)c1)c1cccc(F)c1 | < 1 µg/mL | – | 9.7 µL/min/mg
3 | O=C(CNC(=O)c1ccc(F)cc1)NC(c1ccccc1)c1cccc(C(F)(F)F)c1 (centres undefined) | < 1 µg/mL | 19.3 µL/min/mg | –
4 | O=C(CCc1ccccc1)NCC(=O)NC(c1ccccc1)c1ccc(Cl)cc1 (centres undefined) | < 1 µg/mL | 926 µL/min/mg | 887 µL/min/mg
